Reference: US6673785B1, “Use of hepoxilins or hepoxilin analogs as antidiabetics, antiinflammatory agents” (priority 1999, dated 2004)

What was measured:
[1] = tested on: human neutrophils; assay: HxA3-induced rise in intracellular calcium in neutrophils with internalised GTP-γ-S or GTP; format: cell-based; conditions: for effect of internalised nucleotide on HxA3-induced rise in intracellular calcium: approximate cytosolic concentration 21 μM
Text: (§1) For measurement of intracellular calcium, the cells were centrifuged and loaded with INDO-1 AM (see Methods for details). The change in intracellular calcium was monitored with fluorescence spectrophotometer at 331 nm excitation and 410 nm emission. […] Data represents the Mean±SD (n=4 separate experiments).
(§2) The method of Jaconi et al (1993, J. Biol. Chem. 268, 26077-26078] was employed with modifications to incorporate GTP-γ-S or GTP into human neutrophils. Specifically, 20×10^6 cells were incubated in 100 μl of sucrose-rich (500 mM) buffer containing in mM: NaCl 140, KCl 5, MgCl2 1, Hepes sodium-free 10, glucose 10, and EGTA 1, 10% polyetylene glycol 1000, pH 7.3. The buffer either contained nothing else (control) or GTP-γ-S (50 mM) or GTP (50 mM). The cells were incubated for 15 min at 37° C. to allow fluid-phase endocytosis of extracellular material. The cells were hypotonically shocked during 2 min at 37° C. by the addition of 1 mL of hypotonic medium made up of 1 part normal medium and 0.66 parts of water [Hallet & Campbell. 1983, Immunology, 50, 487-495]. The cells were then centrifuged at 900 rpm×5 min and resuspended in 2 mL of calcium-free assay medium for the binding studies or in RPMI 1640 for the calcium measurements. […] The particulate matter was sedimented through centrifugation and fluorescence in the supernatant was measured in a fluorescence spectrophotometer and 430 nm excitation, 540 nm emission using dilutions of the dye as standard. While unshocked neutrophils contained virtually no fluorescence above background, the shocked cells contained approximately 24 ng dye/4×10^6 cells. […]
(§3) Intracellular free calcium concentrations were monitored continuously in a Perkin-Elmer fluorescence spectrophotometer (Model 65040) using Indo-I AM-loaded neutrophils. […]
(§4) Unloaded dye was removed by centrifugation and the cells were resuspended in fresh RPMI 1640(1 mL). […] The resulting effect was recorded on a chart recorder (LKB model 2210, Pharmacia, Sweden) at 1 cm/min chart speed for the next 5 min (FIG. 20).

[2] = tested on: hepoxilin binding protein in neutrophils; assay: Binding of [3H]-HxA3 (8S) to neutrophils with internalised GTP-γ-S or GTP; design: species or system human; conditions: approximate cytosolic concentration 21 μM
Text: as §1
as §2, with “487-495].” for “487-495]. The cells were then centrifuged at 900 rpm×5 min and resuspended in 2 mL of calcium-free assay medium for the binding studies or in RPMI 1640 for the calcium measurements.”, “standard.” for “standard. While unshocked neutrophils contained virtually no fluorescence above background, the shocked cells contained approximately 24 ng dye/4×10^6 cells.”

[3] = tested on: bleomycin-induced lung fibrosis; assay: Bleomycin-induced lung injury mouse model; format: in vivo; conditions: for inhibition of bleomycin-evoked lung fibrosis, relative potency: 200 μg/mouse bleomycin, various concentrations
Procedure: Mice were divided into 7 groups, each containing 5 animals. All groups were administered i.p. saline+7% ethanol as vehicle. Group 1 received only vehicle. Groups 2-7 received intratracheal bleomycin. Bleomycin is an antibiotic having antineoplastic activity. It is used clinically to treat malignancies such as lymphoma and testicular cancer. However, it has several side effects such as causing lung fibrosis characterized by diffuse alveolar hemorrhage and marked accumulation of inflammatory cells and an increase in collagen synthesis. Additionally, Group 3 received Trolox antioxidant, Group 4 received H1, Group 5 received H2, Group 6 received H3, and Group 7 received H4. All hepoxilins were dissolved in 7 μl ethanol and diluted to 100 μl saline for i.p. administration. All compounds were administered daily at the dose of 100 μg/20 g (5000 μg/kg) mouse for 8 days. Lungs from all animals were perfused and fixed for histology. […] As in section B1 above, the effective concentration of the drugs is unknown due to the still undetermined uptake and distribution in the body. The present study served as an indicator of biological activity in vivo. The study was also conducted using saline or 200 μg/mouse bleomycin. In these studies the hepoxilin analogs H1 and H2 were administered in various concentrations (FIGS. 14A-14E). […] Lung fibrosis was associated with increased collagen synthesis (FIGS. 15A, 15B). […] Collagen staining was done using sirius red and fast green.

[4] = tested on: bleomycin-evoked vascular permeability; assay: Bleomycin-evoked skin vascular permeability (Evans Blue); format: in vivo; conditions: 100 ng intradermally, bleomycin 12 μg
Procedure: H1 and 2 blocked the bleomycin (12 μg)—evoked vascular permeability at 100 ng intradermally. (FIGS. 18 and 19). Vascular permeability was measured using Evans Blue I.V. Hepoxilin analogs were intradermally applied and within 30 minutes, a formamide extraction of punched skin was done. Extraction and absorbance was read at 620 nm.

[5] = tested on: human neutrophils; assay: Rise in intracellular calcium in INDO-1AM loaded neutrophil suspensions, normal vs Type 1 diabetic; format: cell-based
Text: It was previously reported that the native HX cause a rise in intracellular calcium in suspensions of human neutrophils. […] In view of the findings reported above on alterations in the hepoxilin binding protein in diabetes, it was investigated whether the response to varied amounts of hepoxilin in terms of calcium release was altered in Type 1 diabetic neutrophils. This involved measurement of the rise in intracellular calcium in INDO-1AM loaded neutrophil suspensions spectrofluorometrically after addition of HxA3.
Normal and diabetic neutrophils were compared to 4 concentrations of HxA3, i.e. 100, 200, 500 and 1000 ng added in 1 μl DM50 to 2×10^6 cells/ml. […] Additional data was obtained by administering 1000 ng of hepoxilin five minutes after the first test. Previous results with normal neutrophils have shown that the response to a second addition of hepoxilin is blunted depending on the extent of calcium rise in the first test. […]
as §3, §4

Nc1nc2c(ncn2[C@@H]2O[C@H](COP(=O)(O)OP(=O)(O)OP(O)(O)=S)[C@@H](O)[C@H]2O)c(=O)[nH]1 [GTP-γ-S]
effect of internalised nucleotide on HxA3-induced rise in intracellular calcium [1]: inhibition | effect of internalised nucleotide on binding of [3H]-HxA3 [2]: inhibition

Nc1nc2c(ncn2[C@@H]2O[C@H](COP(=O)(O)OP(=O)(O)OP(=O)(O)O)[C@@H](O)[C@H]2O)c(=O)[nH]1 [GTP]
effect of internalised nucleotide on HxA3-induced rise in intracellular calcium [1]: no significant change

CCCCC/C=C\CC1CC1/C=C/[C@@H](O)C/C=C\CCCC(=O)OC (stereo partly drawn) [H1, 8(S)-hydroxy-11 ,12-cyclopropyl-eicosa-5Z, 10E, 14Z-trienoic acid methyl ester]
inhibition of bleomycin-evoked lung fibrosis, relative potency [3]: most potent | dose dependence of activity against lung fibrosis ([3]; 400 μg/kg, 2 mg/kg, 4 mg/kg): dose dependent | potency against lung fibrosis compared with Amifostine and Trolox ([3]; Amifostine 200 mg/kg, Trolox 30 mg/kg): more potent than Amifostine (200 mg/kg) or Trolox (30 mg/kg) | threshold activity against lung fibrosis ([3]; i.p.): 400 µg/kg | bleomycin-evoked vascular permeability [4]: blocked

CCCCC/C=C\CC1CC1/C=C/[C@H](O)C/C=C\CCCC(=O)OC (stereo partly drawn) [H2, 8(R)hydroxy-11,12-cyclopropyl-eicosa-5Z, 10E, 14Z-trienoic acid methyl ester]
inhibition of bleomycin-evoked lung fibrosis, relative potency [3]: most potent | bleomycin-evoked vascular permeability [4]: blocked

CCCCC/C=C\C[C@@H]1O[C@H]1/C=C/C(O)C/C=C\CCCC(=O)O (stereo partly drawn) [HxA3, 8(S,R)-hydroxy-11(S),12(S)-epoxy-eicosa-5Z, 9E, 14Z-trienoic acid]
calcium response to second addition, diabetic vs normal neutrophils ([5]; 1000 ng five minutes after the first test): more inhibition | rise in intracellular free calcium, diabetic vs normal neutrophils ([5]; 100, 200, 500 and 1000 ng in 1 μl to 2×10^6 cells/ml): diabetic neutrophils are more responsive | change in intracellular calcium ([1]; 2×10^6 cells in 1 mL calcium-free buffer, 37° C.): rapid rise in intracellular calcium
